Non-standard residues stand in square brackets, D forms with d. Residues, ends and D or L forms follow the SMILES beside them. *: point of attachment. Tle = CC(C)(C)[C@H](N)C(=O)O; X1 = CCNCCCC(=O)*
Experiments:
[1] = Toxicity study in monkeys, serum chemistry (cholesterol, triglycerides, liver enzymes); type: in vivo
Procedure: A study was conducted to evaluate toxicity in monkeys with HPI-363 at doses of 0.05 to 5 mg/kg. The compound was administered as a slow IV push over 20 to 30 seconds. Six animals (3 males and 3 females) approximately 2 years old and weighing 2.1-2.5 kilograms were dosed once daily for 14 days. Blood chemistry was collected on Days 1-15. […] A reduction of 27%-40% in levels of cholesterol and triglycerides respectively from pre-dose was observed over 15 days. The lipid-lowering effect occurred within a 12 hr-period.

[2] = Body weight and food intake in Sprague-Dawley and obese Zucker (fa/fa) rats; type: in vivo; conditions: for Avg. Wt. Change (g) Days 1-10 / Food Consumption. (g) Days 1-10: 1 mg/kg IV daily Days 1-10; for Avg. Wt. Change (g) Days 11-20 / Food Consumption. (g) Days 11-20: saline Days 11-20 after 1 mg/kg IV daily Days 1-10
Procedure: Male Sprague-Dawley (SD, Harlan Laboratories) rats (210-220 g at initiation of experiments) and genetically obese Zucker (fa/fa) (ZF, Harlan Laboratories) rats (210-220 g at initiation of experiments) were housed individually under a 12 h:12 h light:dark schedule (lights on at 7:00 AM). All compound administration, animal and food weighing were performed between noon and 1 PM (during the light phase of the animals' circadian illumination schedule). Each rat was provided standard rat chow and water ad libitum throughout the experiments.
Each animal received either 1 mg/kg HPI-363 dissolved in saline IV (Treated) or saline (Vehicle or Untreated) for ten consecutive days followed by daily injections of saline for ten additional days. At the start of the experiment, each animal was weighed and single-housed with rat chow and water, with subsequent weighing occurring at 24 hr increments for 20 days. For food intake, 100 g of rat chow was placed in each animal's hopper and leftover chow in the hopper was collected and weighed every 24 hr for 20 days at the time of animal weighing. Chow was then replenished to 100 g each day. As a monitor of the general health of the animals, rats were observed twice daily.

[3] = target: NT1 receptor (Homo sapiens, UniProt P30989); conditions: receptor binding studies; cited from earlier work
[4] = target: NT2 receptor (Homo sapiens, UniProt O95665); conditions: receptor binding studies; cited from earlier work
Chain of NT2 receptor (O95665 whole entry): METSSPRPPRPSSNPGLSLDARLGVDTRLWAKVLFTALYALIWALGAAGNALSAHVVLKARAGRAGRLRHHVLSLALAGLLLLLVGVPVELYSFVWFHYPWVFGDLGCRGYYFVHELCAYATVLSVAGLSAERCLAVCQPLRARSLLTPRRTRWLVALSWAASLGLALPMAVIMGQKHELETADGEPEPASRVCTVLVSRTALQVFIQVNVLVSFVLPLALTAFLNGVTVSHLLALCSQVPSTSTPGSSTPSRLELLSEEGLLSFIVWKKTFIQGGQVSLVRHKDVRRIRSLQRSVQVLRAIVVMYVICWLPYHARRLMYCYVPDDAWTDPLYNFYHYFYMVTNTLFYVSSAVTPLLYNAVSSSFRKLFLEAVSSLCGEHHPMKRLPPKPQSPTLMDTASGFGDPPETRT

Chain of NT1 receptor (P30989 whole entry): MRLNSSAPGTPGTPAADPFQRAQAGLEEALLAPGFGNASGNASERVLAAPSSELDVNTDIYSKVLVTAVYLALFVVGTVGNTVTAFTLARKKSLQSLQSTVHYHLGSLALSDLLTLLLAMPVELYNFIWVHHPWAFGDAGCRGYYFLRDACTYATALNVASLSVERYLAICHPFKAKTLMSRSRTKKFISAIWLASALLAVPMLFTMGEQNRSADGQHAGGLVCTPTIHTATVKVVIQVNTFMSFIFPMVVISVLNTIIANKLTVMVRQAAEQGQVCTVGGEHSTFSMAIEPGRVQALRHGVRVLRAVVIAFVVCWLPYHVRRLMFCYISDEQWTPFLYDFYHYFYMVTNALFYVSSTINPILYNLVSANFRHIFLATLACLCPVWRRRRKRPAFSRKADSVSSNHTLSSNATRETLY

Compound	Time in which the lipid-lowering effect occurred ([1]; 0.05 to 5 mg/kg IV) [h]	Effect on cholesterol and triglycerides (serum chemistry) ([1]; 0.05 to 5 mg/kg IV once daily for 14 days)	Liver enzymes ([1]; 0.05 to 5 mg/kg IV once daily for 14 days, normalized within the 15 days of the study)	Reduction in levels of cholesterol from pre-dose ([1]; 0.05 to 5 mg/kg slow IV push once daily for 14 days, over 15 days) [%]	General health, observed twice daily ([2]; SD and ZF rats, 20 days)	Avg. Wt. Change (g) Days 1-10 ([2]; Sprague-Dawley (SD) rats) [g]	Food Consumption. (g) Days 1-10 ([2]; Sprague-Dawley (SD) rats) [g]	Avg. Wt. Change (g) Days 11-20 ([2]; Sprague-Dawley (SD) rats) [g]	Food Consumption. (g) Days 11-20 ([2]; Sprague-Dawley (SD) rats) [g]	Avg. Wt. Change (g) Days 1-10 ([2]; Zucker fa/fa (ZF) rats) [g]	Food Consumption. (g) Days 1-10 ([2]; Zucker fa/fa (ZF) rats) [g]	Avg. Wt. Change (g) Days 11-20 ([2]; Zucker fa/fa (ZF) rats) [g]	Food Consumption. (g) Days 11-20 ([2]; Zucker fa/fa (ZF) rats) [g]	Food intake ([2]; both SD and ZF rats, 1 mg/kg IV Days 1-10)	Weight gain ([2]; both SD and ZF rats, 1 mg/kg IV Days 1-10, maintained after cessation (Days 11-20))	Affinity for the NT1 receptor [3]	Affinity for the NT2 receptor [4]
CCNCCCC(=O)N[C@@H](CCCNC(=N)N)C(=O)N1CCC[C@H]1C(=O)N[C@@H](Cc1c[nH]c2ccccc12)C(=O)N[C@H](C(=O)N[C@@H](CC(C)C)C(=O)O)C(C)(C)C [HPI-363] (X1-RPW[Tle]L-OH)	≤ 12	dose dependent effect	transient rise	27	No deviations from normal affect	17.4	148.5	40.0	222.0	54.6	252.7	88.5	402.0	decreased food intake	inhibition of weight gain		
Lys-(psiCH2NH)-Lys-Pro-Trp-Ter-Leu-Leu-OEt [PD149163]																has affinity	no detectable affinity

From patent US8476221B2, “Methods and compositions for the treatment of metabolic disorders” (Halimed Pharmaceuticals, Inc., priority 2011, dated 2013)
